{"source": "ChEMBL document CHEMBL1127930", "about": "“Design, synthesis and biological properties of structurally non-related endotoxin inhibitors” (Bioorg Med Chem Lett, 1994)", "system": "Escherichia coli", "test": "Compound was evaluated to inhibit the LAL response produced by two endotoxin units of Escherichia coli LPS", "format": "functional, organism-based", "data": [{"compound": "CCCCCCCCCCCCCC[N+](C)(C)C[C@@H]1OCO[C@H]1C[N+](C)(C)CCCCCCCCCCCCCC", "values": [{"measurement": "Concentration", "result": 75, "unit": "µg/mL"}]}, {"compound": "CCCCCCCCCCCCCC[N+](C)(C)C[C@@H]1OC(C)(C)O[C@H]1C[N+](C)(C)CCCCCCCCCCCCCC", "values": [{"measurement": "Concentration", "result": 75, "unit": "µg/mL"}]}]}
